pIC50: −log10 of the molar value. Where two headings read alike, the source gives them in different places.

Test [1] has as its target T1, maize enzyme cytokinin oxidase/dehydrogenase 1 (ZmCKX1) (Zea mays, UniProt Q9T0N8).
T1 construct: made in house; host or cells: Yarrowia lipolytica
The test is described as follows: ZmCKX1 inhibition, PMS/MTT assay. Type of test: biochemical. The note with it: for IC50: 10 µM N6-isopentenyladenine (iP) as substrate, pH 7.4, 30 min at 37 °C, average of at least two measurements, read-out: IC50 (µM) ZmCKX1. On the procedure: The IC50 (concentration of a substance that causes 50% inhibition of the enzyme activity) was measured by PMS/MTT assay [phenazine methosulphate/3-(4,5-dimethylthiazol-2-yl)-2,5-diphenyltetrazolium bromide]. The assay was performed in 96-well microtiter plates. Each well contained a reaction mixture with a final concentration of: 0.1 M KH2PO4, pH 7.4, 1 mM MTT, 0.2 mM PMS, tested substance in a concentration range of 0.1 nM - 1 µM and 10 µM N^6-isopentenyladenine (iP) as a substrate. To this reaction mixture 100 µL of medium containing the active enzyme ZmCKX1 was added. The enzyme was produced by the yeast Yarrowia lipolytica and isolated according to the protocol (Kopečný D. et al., 2005, […] 87:1011-1022). The plates were incubated for 30 min at 37 °C and the enzymatic reaction was stopped by the addition of 25 µL of 35% acetic acid. Then, the absorbance at 578 nm was measured on a spectrophotometer, and the absorbance of the sample without the substrate was substracted as a reference value. The IC50 value was determined from the concentration-dependent curves in GraphPad Prism software. The values shown in Table 1 are the average of at least two measurements each performed in three repetitions. […] This also applies to 3,5-DCl-Ph-U derivatives.
In general terms: Tetrazolium assays rely on reduction of a dye to a coloured formazan, in cell work by metabolically active cells.

Test [2] concerns segments of wheat leaves (Triticum aestivum cv. Hereward). The test is described as follows: wheat leaf senescence assay performed in the dark (chlorophyll retention in detached leaf segments). Type of test: in vivo. Conditions: 10 micromolar, 96 hours in the dark at 25 °C, compared to yellow control (0,2% DMSO); for activation at 10 µM: Triticum aestivum, foliar, read-out: (% of chlorophyll above control). On the procedure: Seeds of winter wheat (Triticum aestivum cv. Hereward) was washed under running water for 4 hours and then sown in vermiculite saturated with Knop's nutrient solution. The trays with seeds were placed in an air-conditioned growth chamber with a 16/8 hour light regime (light intensity 50 µmol.m^-2.s^-1) and a temperature of 15 °C. After 7 days, the seedlings had developed the first […] and the second leaf began to grow. Top sections approximately 4 cm long were excised from the first leaves of 4 plants and their combined weight was adjusted to exactly 100 mg. The basal ends of these 4 leaf segments were placed in the wells of microtiter polystyrene plates containing solution (150 µL) of the tested derivative. The plates were placed in a plastic box with filter paper, which was saturated with water (to maintain the maximum humidity). After 96 hours of incubation in the dark at 25 °C, the leaf segments were removed and the chlorophyll was extracted to 5 mL of 80% ethanol by heating the leaf segments in ethanol at 80 °C for 40 min. The sample volume was then adjusted to 5 mL by adding 80% ethanol. The absorbance of the extracts was measured at 665 nm. Chlorophyll extracts from leaf segments incubated in deionized water (so-called yellow control) were also measured as controls. Freshly cut leaves (100 mg) were used as a green control, from which chlorophyll was extracted and measured in the same manner. The calculated values are the average of 5 replicates and the whole experiment was repeated two times. The tested compounds were dissolved in dimethyl sulfoxide (DMSO) to a concentration 10^-2 M. This stock solution was further diluted with water to a concentration of 10 micromolar. At this concentration, the substances were tested.

Test [3] concerns winter wheat (Triticum aestivum cv. Hereward). The experiment in a line: salt-induced senescence of wheat plants. Type of test: in vivo. Conditions: 100 nM aqueous solution, 75 mM NaCl seven days after planting, assessed 30 days after planting. On the procedure: To investigate the effects of compounds 64 and 66 on salt-induced senescence, seeds of winter wheat (Triticum aestivum cv. Hereward) were washed under running water for 4 hours and then sown on perlite soaked with water (control) or 100 nM aqueous solution of compounds 64 or 66. Trays with seeds were placed in a growth chamber at 25 °C for 16/8 h light/dark at an intensity of 50 µmol.m^-2.s^-1. Seven days after planting, the plants were treated with 75 mM NaCl solution. The plants were allowed to grow and the plant damage was assessed 30 days after planting.
While untreated plants have the first leaves dead and the second leaves yellow, plants treated with CKX inhibitors have the first leaves yellowing and the second leaves green. […] This in vivo experiment is evidence that CKX inhibitors prolong the photosynthetic activity of wheat plants that have been exposed to environmental stress.

T1 sequence (Q9T0N8 19-534): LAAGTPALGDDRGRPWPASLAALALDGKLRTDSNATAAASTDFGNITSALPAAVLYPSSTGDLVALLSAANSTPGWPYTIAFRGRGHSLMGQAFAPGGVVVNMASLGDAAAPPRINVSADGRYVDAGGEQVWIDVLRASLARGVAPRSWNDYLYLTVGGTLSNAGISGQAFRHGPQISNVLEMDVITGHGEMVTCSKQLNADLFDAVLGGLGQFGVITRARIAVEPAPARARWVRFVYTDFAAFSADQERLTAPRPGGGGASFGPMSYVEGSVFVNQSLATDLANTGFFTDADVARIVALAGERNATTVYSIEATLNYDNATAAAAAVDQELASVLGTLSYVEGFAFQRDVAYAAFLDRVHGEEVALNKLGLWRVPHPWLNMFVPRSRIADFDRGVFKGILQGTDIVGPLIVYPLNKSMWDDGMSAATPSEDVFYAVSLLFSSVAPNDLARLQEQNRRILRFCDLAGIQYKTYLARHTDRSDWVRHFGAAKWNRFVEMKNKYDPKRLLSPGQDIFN

With `COc1cccc(NC(=O)Nc2cc(F)ccc2CCO)c1` [Compound 51, 1-[5-fluoro-2-(2-hydroxyethyl)phenyl]-3-(3-methoxyphenyl)urea], the IC50 in test [1] was 0.08 µM. Moreover, in test [2], the activation at 10 µM came out at 30%.

For `COc1cc(NCCN)cc(NC(=O)Nc2cc(Cl)ccc2CO)c1` [Compound 25, 1-(5-chloro-2-hydroxymethylphenyl)-3-[3-(2-aminoethylamino)-5-methoxyphenyl]urea], the IC50 in test [1] is 0.024 µM. The activation at 10 µM in test [2] was 45%.

On to `CSc1cccc(NC(=O)Nc2cc(Br)ccc2CO)c1` [Compound 27, 1-(5-bromo-2-hydroxy-methylphenyl)-3-(3-methylsulphanylphenyl)urea], for which the pIC50 in test [1] was 6.77. In addition, the “(% of chlorophyll above control)” value in test [2] came out at 26%.

In turn, `COc1cc(NC(=O)Nc2cc(Br)ccc2CO)ccn1` [Compound 8, 1-(5-bromo-2-hydroxy-methylphenyl)-3-(2-methoxypyridin-4-yl)urea] had a pIC50 in test [1] of 6.89. For the same compound, in test [2], the “(% of chlorophyll above control)” value is listed as 25%.

Turning to `NCCNc1cc(NC(=O)Nc2cc(Cl)ccc2CO)cc(OC(F)(F)F)c1` [Compound 40, 1-(5-chloro-2-hydroxymethylphenyl)-3-[3-(2-aminoethylamino)-5-trifluoromethoxyphenyl]urea], in test [1], the IC50 came out at 0.01 µM. For the same compound, the activation at 10 µM in test [2] came to 39%.

Regarding `O=C(Nc1cccc(SC(F)(F)F)c1)Nc1cc(F)ccc1CO` [Compound 42, 1-(5-fluoro-2-hydroxymethylphenyl)-3-(3-trifluoromethylsulphanylphenyl)urea], the 50% inhibitory concentration (IC50) in test [1] is 0.08 µM. Besides, the activation at 10 µM in test [2] was 25%.

Consider `O=C(Nc1cccc(SC(F)(F)F)c1)Nc1ccccc1CCO` [Compound 68, 1-[2-(2-Hydroxyethyl)phenyl]-3-(3-trifluoromethylsulphanylphenyl)urea], for which the IC50 in test [1] was 0.074 µM. For the same compound, in test [2], the activation at 10 µM worked out at 34%.

For `O=C(Nc1ccccc1)Nc1ccnc(Cl)c1` [CPPU, 1-(2-chloropyridin-4-yl)-3phenylurea, reference compound], the negative-log IC50 (pIC50) in test [1] was 4.69. In addition, the activation at 10 µM in test [2] amounted to 12%.

As for `O=C(Nc1cc(F)nc(F)c1)Nc1cc(Cl)ccc1CCO` [Compound 11, 1-[5-chloro-2-(2-hydroxyethyl)phenyl]-3-(2,6-difluoropyridin-4-yl)urea], the IC50 in test [1] is 0.095 µM. Further, in test [2], the activation at 10 µM came to 31%.

On to `COc1cc(NCCN)cc(NC(=O)Nc2cc(Cl)ccc2CCO)c1` [Compound 59, 1-[5-chloro-2-(2-hydroxyethyl)phenyl]-3-[3-(2-aminoethylamino)-5-methoxyphenyl]urea], for which the IC50 in test [1] turned out to be 0.008 µM. For the same compound, in test [2], the activation at 10 µM was 48%.

In the case of `O=C(Nc1ccnc(F)c1)Nc1cc(Cl)ccc1CO` [Compound 2, 1-(5-chloro-2-hydroxymethylphenyl)-3-(2-fluoropyridin-4-yl)urea], the IC50 in test [1] worked out at 0.27 µM. Besides, the activation at 10 µM in test [2] was found to be 23%.

With `COc1cccc(NC(=O)Nc2cc(Br)ccc2CCO)c1` [Compound 53], the IC50 in test [1] came to 0.074 µM. Besides, in test [2], the “(% of chlorophyll above control)” value amounted to 35%.

`COc1cccc(NC(=O)Nc2cc(Cl)ccc2CCO)c1` [Compound 52, 1-[5-chloro-2-(2-hydroxyethyl)phenyl]-3-(3-methoxyphenyl)urea]: the IC50 in test [1] was 0.066 µM. The activation at 10 µM in test [2] was found to be 37%.

The compound `O=C(Nc1cc(Br)cc(OC(F)(F)F)c1)Nc1ccccc1CCO` [Compound 65, 1-(3-Bromo-5-trifluoromethoxyphenyl)-3-[2-(2-hydroxyethyl)phenyl]urea] had a pIC50 in test [1] of 7.46. Besides, in test [2], the “(% of chlorophyll above control)” value was 30%.

`O=C(Nc1cccc(OC(F)(F)F)c1)Nc1cc(Cl)ccc1CCO` [Compound 62, 1-[5-chloro-2-(2-hydroxyethyl)phenyl]-3-(3-trifluoromethoxyphenyl)urea]: in test [1], the IC50 came to 0.021 µM. The activation at 10 µM in test [2] worked out at 39%.

In test [1], `O=C(Nc1cccc(OC(F)(F)F)c1)Nc1cc(Br)ccc1CO` [Compound 34, 1-(5-Bromo-2-hydroxymethylphenyl)-3-(3-trifluoromethoxyphenyl)urea] showed a pIC50 of 7.00. Also, the “(% of chlorophyll above control)” value in test [2] was determined as 32%.

With `O=C(Nc1cc(Cl)cc(OC(F)(F)F)c1)Nc1ccccc1CCO` [Compound 64, 1-(3-Chloro-5-trifluoromethoxyphenyl)-3-[2-(2-hydroxyethyl)phenyl]urea], the pIC50 in test [1] is 7.24. Moreover, in test [3], the “plant damage and senescence under salinity stress” value was “reduced the damage and delayed the senescence”; the “total chlorophyll content in whole plants: untreated salinity-stressed plants have less chlorophyll than treated stressed plants” value is reported as 27%.

As for `COc1cc(Br)cc(NC(=O)Nc2ccccc2CO)c1` [Compound 22, 1-(3-bromo-5-methoxyphenyl)-3-(2-hydroxymethylphenyl)urea], in test [1], the pIC50 is 6.59. Moreover, the “(% of chlorophyll above control)” value in test [2] was determined as 25%.

In the case of `O=C(Nc1cc(NCCO)cc(OC(F)(F)F)c1)Nc1ccccc1CCO` [Compound 66, 1-[3-(2-Hydroxyethylamino)-5-trifluoromethoxyphenyl]-3-[2-(2-hydroxyethyl)phenyl]urea], the IC50 in test [1] was found to be 0.029 µM. Moreover, the activation at 10 µM in test [2] worked out at 36%. For the same compound, in test [3], the “plant damage and senescence under salinity stress” value was “reduced the damage and delayed the senescence”; the “total chlorophyll content in whole plants: untreated salinity-stressed plants have less chlorophyll than treated stressed plants” value was found to be 27%.

Regarding `CSc1cccc(NC(=O)Nc2cc(Cl)ccc2CCO)c1` [Compound 60, 1-[5-chloro-2-(2-hydroxyethyl)phenyl]-3-(3-methylsulphanylphenyl)urea], the IC50 in test [1] was determined as 0.035 µM. The activation at 10 µM in test [2] came out at 36%.

Take `O=C(Nc1cc(Cl)nc(Cl)c1)Nc1cc(Cl)ccc1CO` [Compound 6, 1-(5-chloro-2-hydroxymethylphenyl)-3-(2,6-dichloropyridin-4-yl)urea]: the IC50 in test [1] is 0.1 µM. Also, the activation at 10 µM in test [2] worked out at 29%.

For the compound `COc1cc(NC(=O)Nc2cc(Cl)cc(Cl)c2CCO)ccn1` [Compound 16, 1-[3,5-dichloro-2-(2-hydroxyethyl)phenyl]-3-(2-methoxypyridin-4-yl)urea], the IC50 in test [1] is 0.081 µM. Moreover, the activation at 10 µM in test [2] was 35%.

Take `O=C(Nc1cc(F)nc(F)c1)Nc1ccccc1CCO` [Compound 10, 1-(2,6-difluoropyridin-4-yl)-3-[2-(2-hydroxyethyl)phenyl]urea]: the IC50 in test [1] was found to be 0.72 µM.

In the case of `O=C(Nc1cc(F)cc(F)c1)Nc1ccccc1CCO` [Compound 44, 1-(3,5-difluorophenyl)-3-[2-(2-hydroxyethyl)phenyl]urea], in test [1], the IC50 came out at 0.36 µM.

For orientation: IC50 means the concentration that inhibits the measured activity by half. A word on the pIC50: it is the IC50 on a negative log10 scale, so that one unit is a factor of ten.

Source of the values: patent EP4121415B1, “INHIBITORS OF CYTOKININ OXIDASE DERIVED FROM 1-[2-(HYDROXYALKYL)PHENYL]-3-YLUREA, USE THEREOF AND PREPARATIONS CONTAINING THESE DERIVATIVES” (Univerzita Palackého v Olomouci, priority 2020, dated 2021).
